Laboratory results taken from patent publication US20250306018A1, “METHODS FOR CHARACTERIZING INTERACTIONS BETWEEN ANALYTES” (Nautilus Subsidiary, Inc., priority 2021, published 2025).

Test system: serum proteins
Assay: Binding of fluorescently-labeled detectable probes to a single-analyte array of serum protein conjugates, confocal fluorescent microscopy
Design: species or system human
Details: patterned array of serum protein conjugates
From the text: A blood sample is collected from a human medical subject. A serum fraction containing serum proteins is purified from the blood sample via centrifugation of a whole blood sample obtained from the medical subject and collection of the resulting supernatant. The supernatant includes collected serum proteins as well as several impurities, including trace amounts of clotting factors, vitamins, cofactors, nucleic acids, triglycerides, cholesterols, electrolytes (e.g., Ca^2+, Mg^2+, Na^+, K^+, Fe^2+, etc.), trace amounts of non-human antigens (e.g, viral antigens), and trace amounts of the medical subject's prescribed pharmaceuticals. The fraction containing the extracted serum proteins is modified to incorporate a transcyclooctene (TCO) moiety at some of the amine-containing amino acid sidechain of the present proteins. Each modified serum protein is conjugated to a structured nucleic acid particle (SNAP) containing a methyltetrazine (mTz) attachment moiety via a TCO-mTz Click-type reaction to form a plurality of serum protein conjugates. Certain impurities are also conjugated to SNAPs due to cross-reactivity with functionalization reagents and/or methyltetrazine. […]
The patterned array of serum protein conjugates is characterized by cyclical binding of affinity reagents. […] Identities of serum proteins are determined for […] of addresses on the array to beyond a confidence level of 99.9%. […]

## VEGF
Addresses with identified serum albumin excluded
  polypeptide species bound by the detectable probe: fewer polypeptide species
Judged by repeatability of observed binding
  binding affinity of the detectable probe for bound polypeptide species: low degree of binding affinity
